pIC50: −log10 of the molar value.
Molecular target: T1, mineralocorticoid receptor (MR) (Homo sapiens, UniProt P08235)
T1 construct: expressed in transfected cells; host or cells: Huh7 (human liver cells)
T1 sequence (P08235 726-964 limits assumed): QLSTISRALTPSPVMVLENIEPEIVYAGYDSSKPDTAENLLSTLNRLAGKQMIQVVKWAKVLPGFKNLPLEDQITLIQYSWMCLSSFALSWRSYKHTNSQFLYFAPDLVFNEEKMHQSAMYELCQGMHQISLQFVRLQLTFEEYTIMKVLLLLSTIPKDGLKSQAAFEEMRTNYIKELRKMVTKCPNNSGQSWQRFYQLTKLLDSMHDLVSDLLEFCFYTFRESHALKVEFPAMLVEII
Test: Cell-based Gal4 response element-controlled luciferase reporter assay (MR antagonism)
Details: Huh7 human liver cells transfected with Gal4 DBD-MR LBD fusion and luciferase reporter; block of agonist-induced activation; overnight incubation
Procedure, shortened: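 Transiently transfected Huh7 cells were treated with agonist at 70-80% of full activation plus compounds for 18-20 h in medium with charcoal/dextran-stripped serum. Luciferase read-out was normalized to β-galactosidase (ONPG, OD420); IC50 came from curve fitting.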

| Structure (SMILES) | pIC50 |
| --- | --- |
| N#Cc1ccc(N2N=C3c4ccc(C(=O)O)cc4OCC3C2c2ccc(F)cc2)cc1C(F)(F)F (racemic) [Example 54, 2-(4-cyano-3-(trifluoromethyl)phenyl)-3-(4-fluorophenyl)-2,3,3a,4-tetrahydrochromeno[4,3-c]pyrazole-7-carboxylic acid] | 6.01 |
| N#Cc1ccc(N2N=C3c4ccc(C(=O)O)cc4CCC3C2c2ccoc2)cc1Cl (racemic) [Example 46, 2-(3-chloro-4-cyanophenyl)-3-(3-furyl)-3,3a,4,5-tetrahydro-2H-benzo[g]indazole-7-carboxylic acid] | 7.16 |
| COc1cc(N2N=C3c4ccc(C(=O)O)cc4CCC3C2C2CCCC2)ccc1C#N (racemic) [Example 25, 2-(4-cyano-3-methoxyphenyl)-3-cyclopentyl-3,3a,4,5-tetrahydro-2H-benzo[g]indazole-7-carboxylic acid] | 8.15 |
| CS(=O)(=O)CCNC(=O)c1ccc2c(c1)CC[C@H]1C2=NN(c2ccc(C#N)c(Cl)c2)[C@H]1C1CCCC1 [Example 114, (3S,3aR)-2-(3-chloro-4-cyanophenyl)-3-cyclopentyl-N-(2-(methylsulfonyl)ethyl)-3,3a,4,5-tetrahydro-2H-benzo[g]indazole-7-carboxamide] | 9.00 |
| N#Cc1ccc(N2N=C3c4cc(C(=O)O)ccc4CCC3C2c2ccc(F)cc2)cc1Cl (racemic) [Example 5, 2-(3-chloro-4-cyanophenyl)-3-(4-fluorophenyl)-3,3a,4,5-tetrahydro-2H-benzo[g]indazole-8-carboxylic acid] | 5.43 |
| C[S+]([O-])CCNC(=O)c1ccc2c(c1)CC[C@H]1C2=NN(c2ccc(C#N)c(Cl)c2)[C@H]1c1ccc(F)cc1 (mixture of isomers) [Example 101, (±)-(3RS,3aRS)-2-(3-chloro-4-cyanophenyl)-3-(4-fluorophenyl)-N-[2-(methylsulfinyl)ethyl]-3,3a,4,5-tetrahydro-2H-benzo[g]indazole-7-carboxamide] | 7.64 |
| N#Cc1ccc(N2N=C3c4ccc(C(=O)O)cc4CCC3C2C2CCCC2)cc1OCc1ccccc1 (racemic) [Example 31, 2-(3-(benzyloxy)-4-cyanophenyl)-3-cyclopentyl-3,3a,4,5-tetrahydro-2H-benzo[g]indazole-7-carboxylic acid] | 6.31 |
| Cc1cc(N2N=C3c4ccc(O)cc4CC[C@@H]3[C@@H]2c2ccc(F)cc2)ccc1C#N [Example 81, 4-((3R,3aR)-3-(4-fluorophenyl)-7-hydroxy-3,3a,4,5-tetrahydrobenzo[g]indazol-2-yl)-2-methylbenzonitrile] | 7.46 |
| N#Cc1ccc(N2N=C3c4ccc(C(=O)O)cc4CCC3C2c2ccc(F)cc2)cc1C(F)(F)F (racemic) [Example 9, 2-[4-cyano-3-(trifluoromethyl)phenyl]-3-(4-fluorophenyl)-3,3a,4,5-tetrahydro-2H-benzo[g]indazole-7-carboxylic acid] | 6.77 |
| C[S+]([O-])CCNC(=O)c1ccc2c(c1)CC[C@H]1C2=NN(c2ccc(C#N)c(Cl)c2)[C@H]1C1CCOCC1 (mixture of isomers) [Example 99] | 7.85 |
| N#Cc1ccc(N2N=C3c4ccc(C(=O)O)cc4CC[C@@H]3[C@@H]2C2CCCC2)cc1 [Example 19, (3S,3aR)-2-(4-cyanophenyl)-3-cyclopentyl-3,3a,4,5-tetrahydro-2H-benzo[g]indazole-7-carboxylic acid] | 7.42 |
| CS(=O)(=O)CCNC(=O)c1ccc2c(c1)CC[C@H]1C2=NN(c2ccc(C#N)c(Cl)c2)[C@H]1c1ccc(F)cc1 [Example 95, (3R,3aR)-2-(3-chloro-4-cyanophenyl)-3-(4-fluorophenyl)-N-(2-(methylsulfonyl)ethyl)-3,3a,4,5-tetrahydro-2H-benzo[g]indazole-7-carboxamide] | 8.70 |
| N#Cc1ccc(N2N=C3c4ccc(C(=O)O)cc4OCC3C2C2CCCC2)cc1C(F)(F)F (racemic) [Example 69, (±)-(3RS,3aRS)-2-[4-cyano-3-(trifluoromethyl)phenyl]-3-cyclopentyl-2,3,3a,4-tetrahydrochromeno[4,3-c]pyrazole-7-carboxylic acid] | 6.89 |
| N#Cc1ccc(N2N=C3c4ccc(C(=O)O)cc4CC[C@H]3[C@H]2c2ccco2)cc1Cl [Example 45, (3S,3aS)-2-(3-chloro-4-cyanophenyl)-3-(2-furyl)-3,3a,4,5-tetrahydro-2H-benzo[g]indazole-7-carboxylic acid] | < 6.00 |
| Cc1cc(N2N=C3c4ccc(C(=O)O)cc4OCC3C2c2ccc(F)cc2)ccc1C#N (racemic) [Example 53, (±)-(3SR,3aSR)-2-(4-cyano-3-methylphenyl)-3-(4-fluorophenyl)-2,3,3a,4-tetrahydrochromeno[4,3-c]pyrazole-7-carboxylic acid] | 6.51 |
| N#Cc1ccc(N2N=C3c4ccc(C(=O)O)cc4OCC3C2C2CCCC2)cc1C(F)(F)F (racemic) [Example 68, (±)-(3RS,3aSR)-2-[4-cyano-3-(trifluoromethyl)phenyl]-3-cyclopentyl-2,3,3a,4-tetrahydrochromeno[4,3-c]pyrazole-7-carboxylic acid] | 7.28 |
| N#Cc1ccc(N2N=C3c4ccc(C(=O)O)cc4CC[C@H]3[C@H]2c2ccc(F)cc2)cc1Cl [Example 4, (3S,3aS)-2-(3-chloro-4-cyanophenyl)-3-(4-fluorophenyl)-3,3a,4,5-tetrahydro-2H-benzo[g]indazole-7-carboxylic acid] | 5.46 |
| N#Cc1ccc(N2N=C3c4ccc(C(=O)O)cc4OC[C@@H]3[C@@H]2c2ccc(F)cc2)cc1 [Example 59, (3R,3aR)-2-(4-cyanophenyl)-3-(4-fluorophenyl)-2,3,3a,4-tetrahydrochromeno[4,3-c]pyrazole-7-carboxylic acid] | < 6.00 |
| Cc1cc(N2N=C3c4ccc(C(=O)O)cc4CC[C@H]3[C@H]2C2CCCC2)ccc1C#N (single isomer, unassigned) [Example 23] | < 6.30 |
| CS(=O)(=O)CCNC(=O)c1ccc2c(c1)CCC1C2=NN(c2ccc(C#N)c(Cl)c2)C1c1ccc(F)cc1 (racemic) [Example 96, 2-(3-chloro-4-cyanophenyl)-3-(4-fluorophenyl)-N-(2-(methylsulfonyl)ethyl)-3,3a,4,5-tetrahydro-2H-benzo[g]indazole-7-carboxamide] | 7.92 |
| N#Cc1ccc(N2N=C3c4ccc(C(=O)O)cc4CCC3C2c2ccc(F)cc2)cc1 (racemic) [Example 10, 2-(4-cyanophenyl)-3-(4-fluorophenyl)-3,3a,4,5-tetrahydro-2H-benzo[g]indazole-7-carboxylic acid] | 6.26 |
| N#Cc1ccc(N2N=C3c4ccc(C(=O)O)cc4CCC3C2C2CCC2)cc1Cl (racemic) [Example 35, 2-(3-chloro-4-cyanophenyl)-3-cyclobutyl-3,3a,4,5-tetrahydro-2H-benzo[g] indazole-7-carboxylic acid] | 7.68 |
| N#Cc1ccc(N2N=C3c4ccc(C(=O)NCCOCC(=O)O)cc4CC[C@@H]3[C@@H]2c2ccc(F)cc2)cc1Cl (racemic) [Example 109, (±)-2-(2-((3RS,3aRS)-2-(3-chloro-4-cyanophenyl)-3-(4-fluorophenyl)-3,3a,4,5-tetrahydro-2H-benzo[g]indazole-7-carboxamido)ethoxy)acetic acid] | < 6.00 |
| Cc1ccc([C@@H]2[C@@H]3CCc4cc(C(=O)O)ccc4C3=NN2c2ccc(C#N)c(Cl)c2)o1 [Example 41, (3S,3aS)-2-(3-chloro-4-cyanophenyl)-3-(5-methyl-2-furyl)-3,3a,4,5-tetrahydro-2H-benzo[g]indazole-7-carboxylic acid] | < 6.00 |
| C[C@]12CCc3cc(C(=O)O)ccc3C1=NN(c1ccc(C#N)c(Cl)c1)[C@H]2C1CCCC1 [Example 94, (3S,3aR)-2-(3-chloro-4-cyanophenyl)-3-cyclopentyl-3a-methyl-3,3a,4,5-tetrahydro-2H-benzo[g]indazole-7-carboxylic acid] | 7.60 |
| Cc1ncc(C2C3CCc4cc(C(=O)O)ccc4C3=NN2c2ccc(C#N)c(Cl)c2)s1 (racemic) [Example 49, 2-(3-chloro-4-cyanophenyl)-3-(2-methyl-1,3-thiazol-5-yl)-3,3a,4,5-tetrahydro-2H-benzo[g]indazole-7-carboxylic acid] | 6.99 |
| N#Cc1ccc(N2N=C3c4ccc(C(=O)NCCC(N)=O)cc4CC[C@@H]3[C@@H]2c2ccc(F)cc2)cc1Cl (racemic) [Example 102, (±)-(3RS,3aRS)—N-(3-amino-3-oxopropyl)-2-(3-chloro-4-cyanophenyl)-3-(4-fluorophenyl)-3,3a,4,5-tetrahydro-2H-benzo[g]indazole-7-carboxamide] | 7.46 |
| N#Cc1ccc(N2N=C3c4ccc(C(=O)NCCS(N)(=O)=O)cc4CC[C@@H]3[C@@H]2C2CCOCC2)cc1Cl (racemic) [Example 105, (±)-(3SR,3aRS)—N-[2-(aminosulfonyl)ethyl]-2-(3-chloro-4-cyanophenyl)-3-(tetrahydro-2H-pyran-4-yl)-3,3a,4,5-tetrahydro-2H-benzo[g]indazole-7-carboxamide] | 6.85 |
| N#Cc1ccc(N2N=C3c4ccc(C(=O)O)cc4OC[C@@H]3[C@@H]2C2CCCC2)cc1Cl [Example 65, (3S,3aR)-2-(3-chloro-4-cyanophenyl)-3-cyclopentyl-2,3,3a,4-tetrahydrochromeno[4,3-c]pyrazole-7-carboxylic acid] | 7.42 |
| N#Cc1ccc(N2N=C3c4ccc(C(=O)O)cc4OCC3C2C2CC2)cc1Cl (racemic) [Example 76, 2-(3-chloro-4-cyanophenyl)-3-cyclopropyl-2,3,3a,4-tetrahydrochromeno[4,3-c]pyrazole-7-carboxylic acid] | < 6.00 |

Source: US7781428B2 (Pfizer Inc., priority 2006, dated 2010)
